Measured values from patent US9439432B2, “Phenylisoxazoline-based compound having herbicidal activity and use thereof” (MOGHU RESEARCH CENTER LTD, priority 2011, dated 2016).

Each compound was assayed on Corn (assay: Post-emergence treatment, phytotoxicity to corn). Details: post-emergence (about 3 leaf stage), 1,000 g/ha, 4 weeks after spraying, scale 0 to 10 (0: no effects, 10: complete death).
Assay type: in vivo
Method: (§1) A rectangular plastic pot having a surface area of 300 cm^2 was filled with sandy loam soil and mixed bed soil which were mixed at a ratio of 1:1, and then, barnyardrass (Echinochloa crusgalli), large crabgrass (Digitaria sanguinalis), blackgrass (Alopecurus myosuroides), and annual bluegrass (Poa annua), which are grass weeds, were seeded thereto. In a pot that was prepared as described above, seeds of corn, soybean, cotton, wheat, and rice were seeded. The pots were irrigated, and one day after, chemicals were sprayed thereto. The spraying was performed by using a track sprayer (R&D Sprayer, USA) equipped with a Teejet 8002 (Spraying Systems Co., USA) nozzle, and a spraying amount was adjusted at 300 L/ha. A spraying solution was prepared by dissolving test materials or references in acetone and adding the same amount of 0.2%(v/v) tween 20 aqueous solution thereto. Application rates were 500, 250, 125, and 62.5 g/ha. The pots were placed in a greenhouse in which during day, the temperature was maintained at a temperature of 25 to 30° C., and during night, the temperature was maintained at a temperature of 15 to 25° C., and the pots were periodically irrigated. Four weeks after the spraying the test materials or References, effects and phytotoxicity of the respective weeds and crops were evaluated in a scale of 0 to 10 (0: no effects, 10: complete death), and results thereof are shown in Table 4 below.
(§2) Pots containing crops and weeds were prepared in the same manner as in Example 7, and then, in the second week in which crops and weeds entered into about 3 leaf stage, the test materials and the references were sprayed thereto in the same manner as described above. The rates were 1,000, 500, 250, and 125 g/ha. Four weeks after the spraying of the test materials or the references, herbicidal efficacy and phytotoxicity to the respective weeds and crops were evaluated in a scale of 0 to 10 (0: no effects, 10: complete death).

| Compound | Phytotoxicity, Corn |
| --- | --- |
| CC1(COCc2c(F)cccc2F)CC(c2ccccc2Cl)=NO1 (stereo not shown) [Compound 2, 3-(2-chlorophenyl)-5-((2,6-difluorobenzyloxy)methyl)-5-methyl-4,5-dihydroisoxazole] | 2 |

The compounds below were run on Soybean (assay: Post-emergence treatment, phytotoxicity to soybean). Details: post-emergence (about 3 leaf stage), 1,000 g/ha, 4 weeks after spraying, scale 0 to 10 (0: no effects, 10: complete death).
Assay type: in vivo
Method: as §1, §2

| Compound | Phytotoxicity, Soybean |
| --- | --- |
| CC1(COCc2c(F)cccc2F)CC(c2ccccc2Cl)=NO1 (stereo not shown) [Compound 2, 3-(2-chlorophenyl)-5-((2,6-difluorobenzyloxy)methyl)-5-methyl-4,5-dihydroisoxazole] | 1 |

These compounds were tested on Cotton (assay: Post-emergence treatment, phytotoxicity to cotton). Details: post-emergence (about 3 leaf stage), 1,000 g/ha, 4 weeks after spraying, scale 0 to 10 (0: no effects, 10: complete death).
Assay type: in vivo
Method: as §1, §2

| Compound | Phytotoxicity, Cotton |
| --- | --- |
| CC1(COCc2c(F)cccc2F)CC(c2ccccc2Cl)=NO1 (stereo not shown) [Compound 2, 3-(2-chlorophenyl)-5-((2,6-difluorobenzyloxy)methyl)-5-methyl-4,5-dihydroisoxazole] | 1 |

The compounds below were run on Wheat (assay: Post-emergence treatment, phytotoxicity to wheat). Details: post-emergence (about 3 leaf stage), 1,000 g/ha, 4 weeks after spraying, scale 0 to 10 (0: no effects, 10: complete death).
Assay type: in vivo
Method: as §1, §2

| Compound | Phytotoxicity, Wheat |
| --- | --- |
| CC1(COCc2c(F)cccc2F)CC(c2ccccc2Cl)=NO1 (stereo not shown) [Compound 2, 3-(2-chlorophenyl)-5-((2,6-difluorobenzyloxy)methyl)-5-methyl-4,5-dihydroisoxazole] | 1 |

Each compound was assayed on Rice (assay: Post-emergence treatment, phytotoxicity to rice). Details: post-emergence (about 3 leaf stage), 1,000 g/ha, 4 weeks after spraying, scale 0 to 10 (0: no effects, 10: complete death).
Assay type: in vivo
Method: as §1, §2

| Compound | Phytotoxicity, Rice |
| --- | --- |
| CC1(COCc2c(F)cccc2F)CC(c2ccccc2Cl)=NO1 (stereo not shown) [Compound 2, 3-(2-chlorophenyl)-5-((2,6-difluorobenzyloxy)methyl)-5-methyl-4,5-dihydroisoxazole] | 1 |

What follows are compounds tested on Echinochloa crusgalli (assay: Post-emergence treatment, herbicidal efficacy on barnyardgrass). Details: post-emergence, 125 g/ha, 4 weeks after spraying, scale 0 to 10.
Assay type: in vivo
Method: as §1, §2

| Compound | Herbicidal efficacy, Echinochloa crusgalli |
| --- | --- |
| CC1(COCc2c(F)cccc2F)CC(c2ccccc2Cl)=NO1 (stereo not shown) [Compound 2, 3-(2-chlorophenyl)-5-((2,6-difluorobenzyloxy)methyl)-5-methyl-4,5-dihydroisoxazole] | 0 |

Same assay, conditions: post-emergence, 250 g/ha, 4 weeks after spraying, scale 0 to 10

| Compound | Herbicidal efficacy, Echinochloa crusgalli |
| --- | --- |
| CC1(COCc2c(F)cccc2F)CC(c2ccccc2Cl)=NO1 (stereo not shown) [Compound 2, 3-(2-chlorophenyl)-5-((2,6-difluorobenzyloxy)methyl)-5-methyl-4,5-dihydroisoxazole] | 5 |

Same assay, conditions: post-emergence, 500 g/ha, 4 weeks after spraying, scale 0 to 10

| Compound | Herbicidal efficacy, Echinochloa crusgalli |
| --- | --- |
| CC1(COCc2c(F)cccc2F)CC(c2ccccc2Cl)=NO1 (stereo not shown) [Compound 2, 3-(2-chlorophenyl)-5-((2,6-difluorobenzyloxy)methyl)-5-methyl-4,5-dihydroisoxazole] | 8 |

Same assay, conditions: post-emergence, 1,000 g/ha, 4 weeks after spraying, scale 0 to 10

| Compound | Herbicidal efficacy, Echinochloa crusgalli |
| --- | --- |
| CC1(COCc2c(F)cccc2F)CC(c2ccccc2Cl)=NO1 (stereo not shown) [Compound 2, 3-(2-chlorophenyl)-5-((2,6-difluorobenzyloxy)methyl)-5-methyl-4,5-dihydroisoxazole] | 10 |

The compounds below were run on Digitaria sanguinalis (assay: Post-emergence treatment, herbicidal efficacy on large crabgrass). Details: post-emergence, 125 g/ha, 4 weeks after spraying, scale 0 to 10.
Assay type: in vivo
Method: as §1, §2

| Compound | Herbicidal efficacy, Digitaria sanguinalis |
| --- | --- |
| CC1(COCc2c(F)cccc2F)CC(c2ccccc2Cl)=NO1 (stereo not shown) [Compound 2, 3-(2-chlorophenyl)-5-((2,6-difluorobenzyloxy)methyl)-5-methyl-4,5-dihydroisoxazole] | 5 |

Same assay, conditions: post-emergence, 250 g/ha, 4 weeks after spraying, scale 0 to 10

| Compound | Herbicidal efficacy, Digitaria sanguinalis |
| --- | --- |
| CC1(COCc2c(F)cccc2F)CC(c2ccccc2Cl)=NO1 (stereo not shown) [Compound 2, 3-(2-chlorophenyl)-5-((2,6-difluorobenzyloxy)methyl)-5-methyl-4,5-dihydroisoxazole] | 5 |

Same assay, conditions: post-emergence, 500 g/ha, 4 weeks after spraying, scale 0 to 10

| Compound | Herbicidal efficacy, Digitaria sanguinalis |
| --- | --- |
| CC1(COCc2c(F)cccc2F)CC(c2ccccc2Cl)=NO1 (stereo not shown) [Compound 2, 3-(2-chlorophenyl)-5-((2,6-difluorobenzyloxy)methyl)-5-methyl-4,5-dihydroisoxazole] | 6 |

Same assay, conditions: post-emergence, 1,000 g/ha, 4 weeks after spraying, scale 0 to 10

| Compound | Herbicidal efficacy, Digitaria sanguinalis |
| --- | --- |
| CC1(COCc2c(F)cccc2F)CC(c2ccccc2Cl)=NO1 (stereo not shown) [Compound 2, 3-(2-chlorophenyl)-5-((2,6-difluorobenzyloxy)methyl)-5-methyl-4,5-dihydroisoxazole] | 10 |

These compounds were tested on Poa annua (assay: Post-emergence treatment, herbicidal efficacy on annual bluegrass). Details: post-emergence, 125 g/ha, 4 weeks after spraying, scale 0 to 10.
Assay type: in vivo
Method: as §1, §2

| Compound | Herbicidal efficacy, Poa annua |
| --- | --- |
| CC1(COCc2c(F)cccc2F)CC(c2ccccc2Cl)=NO1 (stereo not shown) [Compound 2, 3-(2-chlorophenyl)-5-((2,6-difluorobenzyloxy)methyl)-5-methyl-4,5-dihydroisoxazole] | 5 |

Same assay, conditions: post-emergence, 250 g/ha, 4 weeks after spraying, scale 0 to 10

| Compound | Herbicidal efficacy, Poa annua |
| --- | --- |
| CC1(COCc2c(F)cccc2F)CC(c2ccccc2Cl)=NO1 (stereo not shown) [Compound 2, 3-(2-chlorophenyl)-5-((2,6-difluorobenzyloxy)methyl)-5-methyl-4,5-dihydroisoxazole] | 8 |

Same assay, conditions: post-emergence, 500 g/ha, 4 weeks after spraying, scale 0 to 10

| Compound | Herbicidal efficacy, Poa annua |
| --- | --- |
| CC1(COCc2c(F)cccc2F)CC(c2ccccc2Cl)=NO1 (stereo not shown) [Compound 2, 3-(2-chlorophenyl)-5-((2,6-difluorobenzyloxy)methyl)-5-methyl-4,5-dihydroisoxazole] | 8 |

Same assay, conditions: post-emergence, 1,000 g/ha, 4 weeks after spraying, scale 0 to 10

| Compound | Herbicidal efficacy, Poa annua |
| --- | --- |
| CC1(COCc2c(F)cccc2F)CC(c2ccccc2Cl)=NO1 (stereo not shown) [Compound 2, 3-(2-chlorophenyl)-5-((2,6-difluorobenzyloxy)methyl)-5-methyl-4,5-dihydroisoxazole] | 10 |

These compounds were tested on Alopecurus myosuroides (assay: Post-emergence treatment, herbicidal efficacy on blackgrass). Details: post-emergence, 125 g/ha, 4 weeks after spraying, scale 0 to 10.
Assay type: in vivo
Method: as §1, §2

| Compound | Herbicidal efficacy, Alopecurus myosuroides |
| --- | --- |
| CC1(COCc2c(F)cccc2F)CC(c2ccccc2Cl)=NO1 (stereo not shown) [Compound 2, 3-(2-chlorophenyl)-5-((2,6-difluorobenzyloxy)methyl)-5-methyl-4,5-dihydroisoxazole] | 1 |

Same assay, conditions: post-emergence, 250 g/ha, 4 weeks after spraying, scale 0 to 10

| Compound | Herbicidal efficacy, Alopecurus myosuroides |
| --- | --- |
| CC1(COCc2c(F)cccc2F)CC(c2ccccc2Cl)=NO1 (stereo not shown) [Compound 2, 3-(2-chlorophenyl)-5-((2,6-difluorobenzyloxy)methyl)-5-methyl-4,5-dihydroisoxazole] | 5 |

Same assay, conditions: post-emergence, 500 g/ha, 4 weeks after spraying, scale 0 to 10

| Compound | Herbicidal efficacy, Alopecurus myosuroides |
| --- | --- |
| CC1(COCc2c(F)cccc2F)CC(c2ccccc2Cl)=NO1 (stereo not shown) [Compound 2, 3-(2-chlorophenyl)-5-((2,6-difluorobenzyloxy)methyl)-5-methyl-4,5-dihydroisoxazole] | 7 |

Same assay, conditions: post-emergence, 1,000 g/ha, 4 weeks after spraying, scale 0 to 10

| Compound | Herbicidal efficacy, Alopecurus myosuroides |
| --- | --- |
| CC1(COCc2c(F)cccc2F)CC(c2ccccc2Cl)=NO1 (stereo not shown) [Compound 2, 3-(2-chlorophenyl)-5-((2,6-difluorobenzyloxy)methyl)-5-methyl-4,5-dihydroisoxazole] | 9 |

These compounds were tested on grass weeds including barnyardrass, large crabgrass, and annual bluegrass (assay: Pre-emergence treatment, grass weeds overall). Details: relative to reference compounds.
Assay type: in vivo
Method: as §1

| Compound | efficacy stronger than the References |
| --- | --- |
| CC1(COCc2c(F)cccc2F)CC(c2ccccc2Cl)=NO1 (stereo not shown) [Compound 2, 3-(2-chlorophenyl)-5-((2,6-difluorobenzyloxy)methyl)-5-methyl-4,5-dihydroisoxazole] | about 4 times |
